Tests used:
HOP-62 [1] = test: Growth inhibition of human HOP62 cells assessed as cell growth at 0.01 uM incubated for 48 hrs by sulforhodamine B assay relative to control; assay type: functional; conditions: HOP-62, 48 h, read-out: Activity
LOX IMVI = test: Growth inhibition of human LOXIMVI cells incubated for 48 hrs by sulforhodamine B assay; assay type: functional
ACHN = test: Growth inhibition of human ACHN cells assessed as cell growth at 0.01 uM incubated for 48 hrs by sulforhodamine B assay relative to control; assay type: functional; conditions: read-out: Activity
PC-3 = test: Growth inhibition of human PC3 cells assessed as cell growth at 100 uM incubated for 48 hrs by sulforhodamine B assay relative to control; assay type: functional; conditions: PC-3, 48 h, read-out: Activity
OVCAR-3 = test: Growth inhibition of human OVCAR3 cells assessed as cell growth at 100 uM incubated for 48 hrs by sulforhodamine B assay relative to control; assay type: functional; conditions: OVCAR-3, 48 h, read-out: Activity
SK-MEL-2 [2] = test: Growth inhibition of human SK-MEL-2 cells assessed as cell growth at 0.1 uM incubated for 48 hrs by sulforhodamine B assay relative to control; assay type: functional; conditions: SK-MEL-2, 48 h, read-out: Activity
HCT-116 = test: Growth inhibition of human HCT116 cells assessed as cell growth at 0.01 uM incubated for 48 hrs by sulforhodamine B assay relative to control; assay type: functional; conditions: HCT-116, 48 h, read-out: Activity
SK-MEL-28 = test: Growth inhibition of human SK-MEL-28 cells assessed as cell growth at 1 uM incubated for 48 hrs by sulforhodamine B assay relative to control; assay type: functional; conditions: SK-MEL-28, 48 h, read-out: Activity
A498 = test: Growth inhibition of human A498 cells incubated for 48 hrs by sulforhodamine B assay; assay type: functional, cell-based; conditions: A498, 48 h
BT-549 = test: Growth inhibition of human BT549 cells assessed as cell growth at 0.1 uM incubated for 48 hrs by sulforhodamine B assay relative to control; assay type: functional; conditions: BT-549, 48 h, read-out: Activity
DU-145 = test: Growth inhibition of human DU145 cells incubated for 48 hrs by sulforhodamine B assay; assay type: functional, cell-based; conditions: DU-145, 48 h
IGROV-1 = test: Growth inhibition of human IGROV1 cells incubated for 48 hrs by sulforhodamine B assay; assay type: functional, cell-based; conditions: IGROV-1, 48 h
SK-OV-3 = test: Growth inhibition of human SKOV3 cells assessed as cell growth at 0.1 uM incubated for 48 hrs by sulforhodamine B assay relative to control; assay type: functional; conditions: SK-OV-3, 48 h, read-out: Activity
KM12 = test: Growth inhibition of human KM12 cells assessed as cell growth at 1 uM incubated for 48 hrs by sulforhodamine B assay relative to control; assay type: functional; conditions: KM12, 48 h, read-out: Activity
UACC-257 = test: Growth inhibition of human UACC257 cells assessed as cell growth at 100 uM incubated for 48 hrs by sulforhodamine B assay relative to control; assay type: functional; conditions: UACC-257, 48 h, read-out: Activity
RPMI-8226 = test: Growth inhibition of human RPMI8226 cells assessed as cell growth at 100 uM incubated for 48 hrs by sulforhodamine B assay relative to control; assay type: functional; conditions: RPMI-8226, 48 h, read-out: Activity
SN12C = test: Growth inhibition of human SN12C cells assessed as cell growth at 0.1 uM incubated for 48 hrs by sulforhodamine B assay relative to control; assay type: functional; conditions: read-out: Activity
SNB-19 = test: Growth inhibition of human SNB19 cells assessed as cell growth at 0.1 uM incubated for 48 hrs by sulforhodamine B assay relative to control; assay type: functional; conditions: SNB-19, 48 h, read-out: Activity
HCT-15 = test: Growth inhibition of human HCT15 cells assessed as cell growth at 100 uM incubated for 48 hrs by sulforhodamine B assay relative to control; assay type: functional; conditions: HCT-15, 48 h, read-out: Activity
TK-10 = test: Growth inhibition of human TK10 cells assessed as cell growth at 10 uM incubated for 48 hrs by sulforhodamine B assay relative to control; assay type: functional; conditions: TK-10, 48 h, read-out: Activity
HOP-62 [3] = test: Growth inhibition of human HOP62 cells assessed as cell growth at 100 uM incubated for 48 hrs by sulforhodamine B assay relative to control; assay type: functional; conditions: HOP-62, 48 h, read-out: Activity
K562 = test: Growth inhibition of human K562 cells assessed as cell growth at 1 uM incubated for 48 hrs by sulforhodamine B assay relative to control; assay type: functional; conditions: K562, 48 h, read-out: Activity
MOLT-4 = test: Growth inhibition of human MOLT4 cells assessed as cell growth at 0.01 uM incubated for 48 hrs by sulforhodamine B assay relative to control; assay type: functional; conditions: MOLT-4, 48 h, read-out: Activity
NCI/ADR-RES = test: Growth inhibition of human NCI/ADR-RES cells incubated for 48 hrs by sulforhodamine B assay; assay type: functional, cell-based
UACC-62 = test: Growth inhibition of human UACC62 cells assessed as cell growth at 1 uM incubated for 48 hrs by sulforhodamine B assay relative to control; assay type: functional; conditions: UACC-62, 48 h, read-out: Activity
SK-MEL-2 [4] = test: Growth inhibition of human SK-MEL-2 cells assessed as cell growth at 100 uM incubated for 48 hrs by sulforhodamine B assay relative to control; assay type: functional; conditions: SK-MEL-2, 48 h, read-out: Activity
HL-60(TB) = test: Growth inhibition of human HL-60(TB) cells assessed as cell growth at 0.1 uM incubated for 48 hrs by sulforhodamine B assay relative to control; assay type: functional; conditions: HL-60, 48 h, read-out: Activity
SNB-75 = test: Growth inhibition of human SNB75 cells assessed as cell growth at 0.1 uM incubated for 48 hrs by sulforhodamine B assay relative to control; assay type: functional; conditions: SNB-75, 48 h, read-out: Activity
OVCAR-8 = test: Growth inhibition of human OVCAR8 cells assessed as cell growth at 100 uM incubated for 48 hrs by sulforhodamine B assay relative to control; assay type: functional; conditions: OVCAR-8, 48 h, read-out: Activity
NCI-H226 = test: Growth inhibition of human NCI-H226 cells assessed as cell growth at 100 uM incubated for 48 hrs by sulforhodamine B assay relative to control; assay type: functional; conditions: NCI-H226, 48 h, read-out: Activity
[5] = read-out: LC50 (the source's name)
[6] = read-out: pLC50 (the source's name) (converted)

With `COc1cc(Cl)cc(-c2nn(-c3cccc(NC(=O)Nc4ccc(Cl)c(C(F)(F)F)c4)c3)cc2-c2ccncc2)c1` the growth at 0.01 µM (HOP-62 [1]) was 100%, the GI50 (LOX IMVI; read-out: GI50) was 1.23 µM and the TGI (LOX IMVI; read-out: TGI) was 31.4 µM. For the same compound, the GI50 (LOX IMVI; read-out: pGI50 (converted)) was 1.23 µM, the growth at 0.01 µM (ACHN) was 91% and the growth at 100 µM (PC-3) was -15%. It also gave a growth at 100 µM (OVCAR-3) of -56%, a growth at 0.1 µM (SK-MEL-2 [2]) of 52% and a growth at 0.01 µM (HCT-116) of 104%. It also gave a growth at 1 µM (SK-MEL-28) of 85%, a GI50 (A498; read-out: GI50) of 2.58 µM and a CC50 (A498; [5]) of 57.6 µM. The TGI (A498; read-out: TGI) was 14.4 µM, the GI50 (A498; read-out: pGI50 (converted)) was 2.69 µM and the CC50 (A498; [6]) was 57.5 µM. For the same compound, the TGI (A498; read-out: pTGI (converted)) was 4.27 µM, the growth at 0.1 µM (BT-549) was 99% and the GI50 (DU-145; read-out: GI50) was 1.55 µM. The CC50 (DU-145; [5]) was 55.2 µM, the TGI (DU-145; read-out: TGI) was 14 µM and the GI50 (DU-145; read-out: pGI50 (converted)) was 1.86 µM. For the same compound, the CC50 (DU-145; [6]) was 56.2 µM, the TGI (DU-145; read-out: pTGI (converted)) was 14.1 µM and the GI50 (IGROV-1; read-out: GI50) was 3.2 µM. It also gave a CC50 (IGROV-1; [5]) of over 100 µM, a TGI (IGROV-1; read-out: TGI) of 29.1 µM and a GI50 (IGROV-1; read-out: pGI50 (converted)) of 3.24 µM. It also gave a CC50 (IGROV-1; [6]) of over 100 µM, a TGI (IGROV-1; read-out: pTGI (converted)) of 3.55 µM and a growth at 0.1 µM (SK-OV-3) of 100%. The growth at 1 µM (KM12) was 33%, the growth at 100 µM (UACC-257) was -86% and the growth at 100 µM (RPMI-8226) was -32%. For the same compound, the growth at 0.1 µM (SN12C) was 100%, the growth at 0.1 µM (SNB-19) was 95% and the growth at 100 µM (HCT-15) was -90%. For the same compound, the growth at 10 µM (TK-10) was 37.5%, the growth at 100 µM (HOP-62 [3]) was -48% and the growth at 1 µM (K562) was 35%. The growth at 0.01 µM (MOLT-4) was 99%, the GI50 (NCI/ADR-RES; read-out: GI50) was 1.77 µM and the CC50 (NCI/ADR-RES; [5]) was over 100 µM. The TGI (NCI/ADR-RES; read-out: TGI) was 11.5 µM, the GI50 (NCI/ADR-RES; read-out: pGI50 (converted)) was 1.78 µM and the CC50 (NCI/ADR-RES; [6]) was over 100 µM. The TGI (NCI/ADR-RES; read-out: pTGI (converted)) was 5.89 µM, the growth at 1 µM (UACC-62) was 82% and the growth at 100 µM (SK-MEL-2 [4]) was -85%. It also gave a growth at 0.1 µM (HL-60(TB)) of 91%, a growth at 0.1 µM (SNB-75) of 52% and a growth at 100 µM (OVCAR-8) of -33%. The growth at 100 µM (NCI-H226) was -29%.
